Where “and” joins values, the source holds several entries; their conditions need not be identical. Identical values can stand only once. Like-named read-outs stand apart in the source and are kept apart here.
Experiments:
mGluR2-3xTM4_W = biological target: T1, mGluR2-3xTM4_W (Rattus norvegicus, UniProt P31421, A677W/A681W/A685W); assay: Calcium imaging in HEK 293 T cells; format: cell-based; conditions: normalized to 1 mM glutamate, replicates
T1 construct: expressed in transfected cells; host or cells: HEK 293 T
Experimental: (§1) We tested this by introducing bulky, hydrophobic tryptophan residues into outward facing residues of TM4 to disrupt inter-subunit interaction.
(§2) Approximately 30 ROIs were analyzed per movie.

mGluR3-3xTM4_W = biological target: T2, mGluR3-3xTM4_W (Rattus norvegicus, UniProt P31422, F690W/G694W/S686W); assay: Calcium imaging in HEK 293 T cells; format: cell-based; conditions: for Calcium response amplitude: normalized to saturating glutamate
T2 construct: expressed in transfected cells; host or cells: HEK 293 T
Experimental: as §1, §2

mGluR2-I779A = biological target: T3, mGluR2-I779A (Rattus norvegicus, UniProt P31421, I779A); assay: Inter-TMD FRET sensor (HaloTag in ICL2), live cells; format: cell-based; conditions: for FRET response amplitude: mGluR2-I779A, inter-TMD FRET
T3 construct: we performed calcium imaging experiments with mutations in the full-length mGluR2 background; expressed in transfected cells; host or cells: HEK 293 T
From the text: Next, we asked how perturbing the TM6 interface would alter the conformational dynamics detected by our TMD FRET sensors.

mGluR2-C121A = biological target: T4, mGluR2-C121A (Rattus norvegicus, UniProt P31421, C121A); assay: SiMPull subunit counting in the presence of ligands; conditions: SNAP-mGluR2-C121A in presence of the ligand; single replicates per experiment day
T4 construct: expressed in transfected cells; host or cells: HEK 293 T (detergent lysate, pulled down by anti-HA antibody)

mGluR2 [1] = biological target: T5, mGluR2 (Rattus norvegicus, UniProt P31421); assay: Inter-LBD FRET (N-terminal SNAP-tags), live cells; conditions: mGluR2, inter-LBD FRET
mGluR2-3xTM4 [2] = biological target: T6, mGluR2-3xTM4 (Rattus norvegicus, UniProt P31421, A677S/A681F/A685G); assay: Inter-LBD FRET (N-terminal SNAP-tags), live cells; conditions: mGluR2-3xTM4, inter-LBD FRET
mGluR3-C127A = mGluR3-C127A (Rattus norvegicus, UniProt P31422, C127A); assay: SiMPull subunit counting in the presence of ligands
mGluR3-C127A-I788A = mGluR3-C127A-I788A (Rattus norvegicus, UniProt P31422, C127A/I788A); assay: as above
mGluR2 [3] = biological target: T5, mGluR2; assay: GIRK channel whole cell patch clamp in HEK 293 T cells
mGluR3 [4] = biological target: T7, mGluR3 (Rattus norvegicus, UniProt P31422); assay: as above; conditions: for GIRK current amplitude: mGluR3
mGluR2-3xTM4 [5] = biological target: T6, mGluR2-3xTM4; assay: Calcium imaging (G protein chimera, GCaMP6f) in HEK 293 T cells; conditions: normalized to 1 mM glutamate, replicates
mGluR3 [6] = biological target: T7, mGluR3; assay: as above
mGluR3-3xTM4 = mGluR3-3xTM4 (Rattus norvegicus, UniProt P31422, F690A/G694A/S686A); assay: as above; conditions: for Calcium response amplitude: normalized to 1 mM glutamate, replicates
[7] = read-out: Glutamate EC50, calcium imaging, normalized to saturating (1 mM) glutamate

T2 sequence (P31422 23-879 S686W/F690W/G694W): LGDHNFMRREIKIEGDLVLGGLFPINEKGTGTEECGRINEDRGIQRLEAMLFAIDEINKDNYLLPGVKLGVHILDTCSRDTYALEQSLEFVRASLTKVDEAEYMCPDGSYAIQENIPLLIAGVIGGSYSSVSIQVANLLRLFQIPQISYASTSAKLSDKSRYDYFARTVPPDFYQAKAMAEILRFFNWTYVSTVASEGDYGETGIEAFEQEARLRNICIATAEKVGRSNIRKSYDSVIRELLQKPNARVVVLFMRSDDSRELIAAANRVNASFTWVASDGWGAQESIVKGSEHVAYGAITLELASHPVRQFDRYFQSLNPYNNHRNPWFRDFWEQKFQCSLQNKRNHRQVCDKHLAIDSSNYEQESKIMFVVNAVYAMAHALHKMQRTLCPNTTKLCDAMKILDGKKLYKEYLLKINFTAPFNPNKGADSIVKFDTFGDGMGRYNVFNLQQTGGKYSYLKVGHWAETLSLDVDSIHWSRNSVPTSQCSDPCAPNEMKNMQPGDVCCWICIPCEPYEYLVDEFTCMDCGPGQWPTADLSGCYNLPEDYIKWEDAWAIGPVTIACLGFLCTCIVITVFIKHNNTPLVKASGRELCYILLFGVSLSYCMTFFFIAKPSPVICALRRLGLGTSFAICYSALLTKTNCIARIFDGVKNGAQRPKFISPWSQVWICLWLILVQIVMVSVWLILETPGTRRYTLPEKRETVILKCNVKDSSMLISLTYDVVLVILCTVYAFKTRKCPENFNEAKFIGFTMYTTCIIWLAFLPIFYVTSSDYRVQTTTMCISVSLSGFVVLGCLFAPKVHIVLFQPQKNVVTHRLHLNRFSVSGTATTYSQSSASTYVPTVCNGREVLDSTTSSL
T7 sequence (P31422 23-879): as the sequence (P31422 23-879 S686W/F690W/G694W) above, with W664S, W668F, W672G counted along it
T4 sequence (P31421 19-872 C121A): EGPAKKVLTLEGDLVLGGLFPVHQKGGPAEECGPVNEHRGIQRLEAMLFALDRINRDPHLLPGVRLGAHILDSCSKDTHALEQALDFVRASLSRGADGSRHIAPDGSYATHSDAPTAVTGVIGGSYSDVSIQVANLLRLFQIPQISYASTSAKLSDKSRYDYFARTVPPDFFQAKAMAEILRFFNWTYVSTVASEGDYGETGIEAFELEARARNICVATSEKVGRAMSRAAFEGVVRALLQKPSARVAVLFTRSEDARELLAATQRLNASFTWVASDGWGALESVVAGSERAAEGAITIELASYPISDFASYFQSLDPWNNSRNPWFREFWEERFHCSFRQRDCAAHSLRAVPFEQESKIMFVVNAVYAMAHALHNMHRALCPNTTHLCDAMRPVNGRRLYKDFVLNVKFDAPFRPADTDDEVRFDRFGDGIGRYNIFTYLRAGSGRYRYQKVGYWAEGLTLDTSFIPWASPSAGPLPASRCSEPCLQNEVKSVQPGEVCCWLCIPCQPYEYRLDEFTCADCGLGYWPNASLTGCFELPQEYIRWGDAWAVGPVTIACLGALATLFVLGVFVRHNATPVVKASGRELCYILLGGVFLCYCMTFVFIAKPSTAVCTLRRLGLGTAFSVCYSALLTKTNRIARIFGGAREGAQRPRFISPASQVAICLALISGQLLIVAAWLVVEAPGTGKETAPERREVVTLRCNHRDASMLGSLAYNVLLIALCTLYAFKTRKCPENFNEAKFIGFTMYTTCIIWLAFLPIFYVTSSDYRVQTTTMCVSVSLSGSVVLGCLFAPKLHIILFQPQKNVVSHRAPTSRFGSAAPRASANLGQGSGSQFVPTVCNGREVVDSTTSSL
T1 sequence (P31421 19-872 A677W/A681W/A685W): as the sequence (P31421 19-872 C121A) above, with A103C, A659W, A663W, A667W counted along it
Chain of mGluR3-C127A-I788A (P31422 23-879 C127A/I788A): as the sequence (P31422 23-879 S686W/F690W/G694W) above, with C105A, W664S, W668F, W672G, I766A counted along it
Chain of mGluR3-C127A (P31422 23-879 C127A): as the sequence (P31422 23-879 S686W/F690W/G694W) above, with C105A, W664S, W668F, W672G counted along it
Chain of mGluR3-3xTM4 (P31422 23-879 S686A/F690A/G694A): as the sequence (P31422 23-879 S686W/F690W/G694W) above, with W664A, W668A, W672A counted along it
T6 sequence (P31421 19-872 A677S/A681F/A685G): as the sequence (P31421 19-872 C121A) above, with A103C, A659S, A663F, A667G counted along it
T5 sequence (P31421 19-872): as the sequence (P31421 19-872 C121A) above, with A103C counted along it
T3 sequence (P31421 19-872 I779A): as the sequence (P31421 19-872 C121A) above, with A103C, I761A counted along it

N[C@@H](CCC(=O)O)C(=O)O [glutamate]
Calcium response amplitude (mGluR2-3xTM4_W; Glutamate 100 nM): 0.00 | Calcium response amplitude (mGluR2-3xTM4_W; Glutamate 1 uM): 0.00 and 0.08 and 0.04 | Calcium response amplitude (mGluR2-3xTM4_W; Glutamate 10 uM): 0.55 and 0.51 | Calcium response amplitude (mGluR2-3xTM4_W; Glutamate 100 uM): 1.00 and 0.99 and 0.76 | Calcium response amplitude (mGluR2-3xTM4_W; Glutamate 1 mM): 1.00 | Calcium response amplitude (mGluR3-3xTM4_W; Glutamate 10 nM, replicates): 0.00 | Calcium response amplitude (mGluR3-3xTM4_W; Glutamate 100 nM, replicates): 0.00 | Calcium response amplitude (mGluR3-3xTM4_W; Glutamate 1 uM, replicates): 0.09 and 0.064 and 0.00 | Calcium response amplitude (mGluR3-3xTM4_W; Glutamate 10 uM, replicates): 0.20 and 0.28 and 0.12 and 0.22 | Calcium response amplitude (mGluR3-3xTM4_W; Glutamate 100 uM, replicates): 0.41 and 0.50 | Calcium response amplitude (mGluR3-3xTM4_W; Glutamate 1 mM): 0.86 | Calcium response amplitude (mGluR3-3xTM4_W; Glutamate 10 mM): 1.00 | EC50 (mGluR3-3xTM4_W; read-out: Glutamate EC50, calcium imaging, normalized to saturating (1 mM) glutamate, unit inferred): 186 ± 0.27 µM | FRET response amplitude (mGluR2-I779A; Glutamate 10 nM): 0.00 | FRET response amplitude (mGluR2-I779A; Glutamate 100 nM): 0.00 | FRET response amplitude (mGluR2-I779A; Glutamate 1 uM): 0.00 | FRET response amplitude (mGluR2-I779A; Glutamate 100 uM): 0.75 and 0.90 and 0.82 | FRET response amplitude (mGluR2-I779A; Glutamate 1 mM): 1.00 | change in glutamate EC50 compared to mGluR2 (mGluR2-I779A; inter-TMD FRET sensor, right shift): two-fold | % Dimerization (mGluR2-C121A): 86.45% and 81.10% and 91.37% and 96.00% and 70.30% and 76.67% | FRET response amplitude (mGluR2 [1]; Glutamate 10 nM): 0.00 | FRET response amplitude (mGluR2 [1]; Glutamate 100 nM): 0.00 | FRET response amplitude (mGluR2 [1]; Glutamate 3 uM): 0.13 and 0.11 and 0.12 and 0.09 | FRET response amplitude (mGluR2 [1]; Glutamate 10 uM): 0.41 and 0.51 and 0.46 and 0.30 | FRET response amplitude (mGluR2 [1]; Glutamate 100 uM): 0.98 and 1.00 and 0.985 | FRET response amplitude (mGluR2 [1]; Glutamate 1 mM): 1.00 | FRET response amplitude (mGluR2-3xTM4 [2]; Glutamate 10 nM): 0.00 | FRET response amplitude (mGluR2-3xTM4 [2]; Glutamate 100 nM): 0.00 | FRET response amplitude (mGluR2-3xTM4 [2]; Glutamate 3 uM): 0.10 | FRET response amplitude (mGluR2-3xTM4 [2]; Glutamate 10 uM): 0.49 and 0.37 | FRET response amplitude (mGluR2-3xTM4 [2]; Glutamate 100 uM): 1.00 and 0.97 | FRET response amplitude (mGluR2-3xTM4 [2]; Glutamate 1 mM): 1.00 | % Dimerization (mGluR3-C127A; SNAP-mGluR3-C127A in presence of the ligand, single replicates per experiment day): 83.23% and 72.86% and 68.26% and 70.70% and 67.67% and 71.63% | effect of ligand on dimerization (SiMPull) (mGluR3-C127A; saturating concentration): increased dimerization | % Dimerization (mGluR3-C127A-I788A; SNAP-mGluR3-C127A-I788A in presence of the ligand, single replicates per experiment day): 41.49% and 28.78% and 34.64% and 33.27% and 41.72% and 37.93% | effect of ligand on dimerization (SiMPull) (mGluR3-C127A-I788A; saturating concentration): no difference | GIRK current amplitude (mGluR2 [3]; Glutamate 10 nM): 0.000 | GIRK current amplitude (mGluR2 [3]; Glutamate 10 uM): 0.889 and 0.827 and 0.749 and 0.879 and 0.952 | GIRK current amplitude (mGluR2 [3]; Glutamate 100 uM): 0.942 and 1.150 and 0.849 and 0.991 | GIRK current amplitude (mGluR2 [3]; Glutamate 1 mM): 1.000 | GIRK current amplitude (mGluR3 [4]; Glutamate 100 nM): 0.155 and 0.145 and 0.126 and 0.149 | GIRK current amplitude (mGluR3 [4]; Glutamate 1 uM): 0.541 and 0.995 and 0.692 | GIRK current amplitude (mGluR3 [4]; Glutamate 10 uM): 0.818 and 1.150 and 0.770 and 0.856 and 1.007 | GIRK current amplitude (mGluR3 [4]; Glutamate 100 uM): 1.000 | EC50 (mGluR3 [4]; read-out: Glutamate EC50, GIRK activation, normalized to saturating (1 mM) glutamate, unit inferred): 0.43 ± 0.1 µM | Calcium response amplitude (mGluR2-3xTM4 [5]; Glutamate 1 nM): 0.00 | Calcium response amplitude (mGluR2-3xTM4 [5]; Glutamate 10 nM): 0.00 | Calcium response amplitude (mGluR2-3xTM4 [5]; Glutamate 100 nM): 0.26 and 0.30 and 0.14 | Calcium response amplitude (mGluR2-3xTM4 [5]; Glutamate 300 nM): 0.49 and 0.41 | Calcium response amplitude (mGluR2-3xTM4 [5]; Glutamate 1 uM): 0.54 and 0.70 and 0.62 and 0.63 and 0.75 | Calcium response amplitude (mGluR2-3xTM4 [5]; Glutamate 3 uM): 0.98 and 0.89 and 0.90 and 0.80 and 0.78 and 1.01 | Calcium response amplitude (mGluR2-3xTM4 [5]; Glutamate 10 uM): 0.95 and 1.00 and 0.99 | Calcium response amplitude (mGluR2-3xTM4 [5]; Glutamate 100 uM): 0.96 and 0.99 and 1.00 (2×) | Calcium response amplitude (mGluR2-3xTM4 [5]; Glutamate 1 mM): 1.00 | Calcium response amplitude (mGluR3 [6]; Glutamate 1 nM, mGluR3): 0.00 | Calcium response amplitude (mGluR3 [6]; Glutamate 1 nM, normalized to 1 mM glutamate, replicates): 0.00 | Calcium response amplitude (mGluR3 [6]; Glutamate 10 nM, mGluR3): 0.00 | Calcium response amplitude (mGluR3 [6]; Glutamate 10 nM, normalized to 1 mM glutamate, replicates): 0.00 | Calcium response amplitude (mGluR3 [6]; Glutamate 100 nM, mGluR3): 0.23 | Calcium response amplitude (mGluR3 [6]; Glutamate 100 nM, normalized to 1 mM glutamate, replicates): 0.23 | Calcium response amplitude (mGluR3 [6]; Glutamate 1 uM, mGluR3): 0.61 and 0.64 and 0.67 and 0.55 | Calcium response amplitude (mGluR3 [6]; Glutamate 1 uM, normalized to 1 mM glutamate, replicates): 0.61 and 0.64 and 0.67 and 0.55 | Calcium response amplitude (mGluR3 [6]; Glutamate 2 uM, mGluR3): 0.66 and 0.77 | Calcium response amplitude (mGluR3 [6]; Glutamate 2 uM, normalized to 1 mM glutamate, replicates): 0.66 and 0.77 | Calcium response amplitude (mGluR3 [6]; Glutamate 3 uM, mGluR3): 0.83 and 0.79 | Calcium response amplitude (mGluR3 [6]; Glutamate 3 uM, normalized to 1 mM glutamate, replicates): 0.83 and 0.79 | Calcium response amplitude (mGluR3 [6]; Glutamate 5 uM, mGluR3): 0.89 and 0.95 and 0.77 | Calcium response amplitude (mGluR3 [6]; Glutamate 5 uM, normalized to 1 mM glutamate, replicates): 0.89 and 0.95 and 0.77 | Calcium response amplitude (mGluR3 [6]; Glutamate 10 uM, mGluR3): 0.99 and 0.95 and 0.92 | Calcium response amplitude (mGluR3 [6]; Glutamate 10 uM, normalized to 1 mM glutamate, replicates): 0.99 and 0.95 and 0.92 | Calcium response amplitude (mGluR3 [6]; Glutamate 1 mM, mGluR3): 1.00 | Calcium response amplitude (mGluR3 [6]; Glutamate 1 mM, normalized to 1 mM glutamate, replicates): 1.00 | EC50 (mGluR3 [6]; [7]): 0.56 ± 0.06 µM | Calcium response amplitude (mGluR3-3xTM4; Glutamate 100 nM): 0.028 and 0.00 | Calcium response amplitude (mGluR3-3xTM4; Glutamate 300 nM): 0.11 (2×) and 0.00 (2×) | Calcium response amplitude (mGluR3-3xTM4; Glutamate 3 uM): 0.32 and 0.20 and 0.21 and 0.35 | Calcium response amplitude (mGluR3-3xTM4; Glutamate 10 uM): 0.27 and 0.56 and 0.69 | Calcium response amplitude (mGluR3-3xTM4; Glutamate 100 uM): 0.89 and 0.81 | EC50 (mGluR3-3xTM4; read-out: Glutamate EC50 (micromolar), calcium imaging, Fig 3F source data): 11 µM | EC50 (mGluR3-3xTM4; [7]): 11 ± 0.1 µM
